The results in this text go back to patent US20260060972A1, “Quantitative Method of Determining a Mental Status Based on DRD1 and/or DRD5, and its Application Thereof” (priority 2022, published 2026).

Entries after “also recorded” stand apart in the source; their conditions may differ.

The subject of assay [1] is DRD1 membrane protein. The note with it: treatment for 36 hrs.
Method: The cultured SH-SY5Y cells were pretreated with complete EMEM medium containing 10 μM SCH23390 for 6 hrs or 12 hrs. […] After treatment, the cells were harvested and processed for mRNA and protein analysis of human DRD1 gene.
The cultured SH-SY5Y cells were pretreated with complete EMEM medium containing 10 μM SKF81297 for 6 hrs or 12 hrs. […] After treatment, the cells were harvested and processed for mRNA and protein analysis of human DRD1 gene
The membrane proteins were extracted using the mem-PER Plus membrane protein extraction kit (ThermoFisher Scinetific, Waltham, MA). The protein concentrations were semi-quantified spectrophotometrically at 280 nm. […] Then, proteins were electro-transferred to a polyvinyl difluoride (PVDF) membrane. […] After the block, the membrane was incubated with primary antibody (human DRD1 antibody, 1:1000) overnight at 4° C. […] The membrane was briefly washed 3 times using fresh TBS, then incubated with Pierce High Sensitivity Streptavidin HRP-linked secondary antibody (1:5000) in TBS supplemented with 0.5% BSA for 30 minutes at room temperature. The membrane was rinsed 3 times using fresh TBS. The immunoreactive protein bands in the membrane were visualized via UVP Biospectrum Imaging system (Upland, CA) using with Immobilon Chemiluminescence reagents (Millipore, Billerica, MA). Protein bands analysis was performed using the ImageJ (NIH, Bethesda, MD).
In assay [2] the test system is 2.8-kb human DRD1 gene promoter. Briefly: Dual-luciferase reporter assay of human DRD1 gene promoter in SH-SY5Y cells. The note with it: for effect on SCH23390/SKF81297-altered DRD1 promoter activity: co-treatment with SCH23390 or SKF81297. A general note: In a reporter assay the amount or activity of a reporter protein is the signal.
Assay [3] deals with human DRD1 gene. The assay can be described thus: DRD1 mRNA expression by quantitative real time-PCR in SH-SY5Y cells. The note with it: for DRD1 mRNA expression, time response: 10 μM, 12, 18, 24, 30 or 32 hrs; for effect of Haloperidol co-treatment on SCH23390-decreased DRD1 mRNA expression: Haloperidol 10 μM co-treatment 12 hrs.
Method: Time-response study. […] The controls received DMSO only. After each time period, the cells were harvested and processed for mRNA analysis of human DRD1 gene.
After treatment, the cells were harvested and processed for mRNA and protein analysis of human DRD1 gene.
After treatment, the cells were harvested and processed for mRNA and protein analysis of human DRD1 gene
The concentration and purity of total RNAs was determined by Biospectrometer (Eppendorf, Hauppauge, NY) at 260 nm. Only RNA samples with an A260/A280 ratio between 1.8-2.0 were used for cDNA synthesis. Briefly, 3 μg total RNAs were reversely transcribed into cDNA using Random and Oligo 9dT) Primers (cat #PR-C1181, Fisher Scientific, Hanover Park, IL), Oilgo dT (cat #FERSO131, Fisher Scientific, Hanover Park, IL), and SuperScript II reverse transcriptase (Life Technologies, Carlsbad, CA) following the manufacturer's instructions. The synthesized cDNA samples were stored at −20° C.
Each cDNA sample, in duplicate, was placed into 96-well plates and mixed with SYBR Select Master Mix (Life Technologies, Carlsbad, CA) and gene-specific primer set. In general, each SYBR reactions in each well contains 5 ml SYBR Select Master Mix, 0.2 μl 10 μM gene-specific primer set, 1.8 μl deionized distilled water, and 3 μl cDNA samples. The qRT-PCR assay was performed in an AriaMx qRT-PCR system (Agilent Technologies; Santa Clara, CA). The relative mRNA expression of each individual gene was calculated according to the comparative delta-delta CT method. The results were expressed as a relative fold, normalized to the expression of 18s rDNA. All quantitative RT-PCR primers were designed using PubMed Primer-BLAST or Primer3 software (NIH) and synthesized by Eurofins (Eurofins MWG Operon USA, Louisville, KY).
The sequences of RT-PCR primers of human DRD1 are as follows: • Gene human DRD1, forward primer: [Sequence ID: 1] 5′-[sequence]-3′, reverse primer: [Sequence ID: 2] 5′-[sequence]-3′ • Gene 18s rDNA, NM number NR_003278.3, forward primer [Sequence ID: 3] 5′-[sequence]-3′; reverse primer [Sequence ID: 4] 5′-[sequence]-3′
Where [4] appears, read: 10 μM, treatment for 18 hrs (FIG. 2A, 3A).
[5] abbreviates: 10 μM, treatment for 24 hrs (FIG. 2A, 3A).

Regarding `CN1CCc2cc(Cl)c(O)cc2[C@@H](c2ccccc2)C1` [SCH23390, SCH-23390], the “decrease of DRD1 membrane protein” value in assay [1] was “more than 70%”.

`Cc1nc2n(c(=O)c1CCN1CCC(c3noc4cc(F)ccc34)CC1)CCCC2` [Risperidone]: the “relative Luciferase activity of DRD1 under treatment of SCH and antipsychotic” value in assay [2] (co-treatment of SCH (FIG. 5A, 6A)) is listed as “partial DRD1 antagonist effect”. The “relative Luciferase activity of DRD1 under treatment of SKF and antipsychotic” value in assay [2] (co-treatment of SKF (FIG. 5B, 6B)) is given as “partial DRD1 antagonist effect”. Besides, the “effect on SCH23390/SKF81297-altered DRD1 promoter activity” value in assay [2] is “trans-stabilize SCH23390/SKF81297-altered DRD1 promoter activity; also recorded: reverse and normalize either SCH23390 or SKF81297-altered human DRD1 promoter activity”.

Regarding `O=C(CCCN1CCC(O)(c2ccc(Cl)cc2)CC1)c1ccc(F)cc1` [Haloperidol], the “DRD1 mRNA expression, time response” value in assay [3] (SH-SY5Y cells (FIG. 1A)) was “did not alter DRD1 mRNA expression at any time points”. Besides, the “DRD1 mRNA and protein expression, treatment alone (summary)” value in assay [3] (10 μM, SH-SY5Y cells) was “does not alter DRD1 expression”. Further, the “DRD1 mRNA expression, treatment alone” value in assay [3] (setting [4]) and in assay [3] (setting [5]) was “did not alter DRD1 mRNA expression” throughout. In addition, the “effect of Haloperidol co-treatment on SKF81297-increased DRD1 mRNA expression” value in assay [3] (Haloperidol co-treatment for 12 hrs (FIG. 3A)) is “completely diminished SKF81297-increased DRD1 mRNA expression”. Also, the “effect of Haloperidol co-treatment on SCH23390-decreased DRD1 mRNA expression” value in assay [3] (SCH23390 10 μM for 18 hrs) is “completely reversed”; in assay [3] (SCH23390 10 μM for 24 hrs), “not reversed”. Also, the “effect of Haloperidol co-treatment on SCH23390-decreased DRD1 mRNA and protein expression (summary)” value in assay [3] (SH-SY5Y cells (FIGS. 2A-2E)) was “reverses SCH23390-decreased DRD1 mRNA and protein expression; also recorded: reversed”. Further, the “effect of Haloperidol co-treatment on SKF81297-increased DRD1 mRNA and protein expression (summary)” value in assay [3] (SH-SY5Y cells (FIGS. 3A-3E)) is “attenuated SKF81297-increased DRD1 mRNA and protein expression”. For the same compound, in assay [2] (2.8-kb promoter luciferase reporter, SCH23390 and SKF81297 for 36 hrs (FIG. 4A, 4B)), the “human DRD1 gene promoter activity, treatment alone” value is “did not change human DRD1 gene promoter activity”. In addition, in assay [2] (SCH23390 36 hrs, haloperidol cotreatment 24 or 36 hrs (FIG. 4A)), the “effect of haloperidol cotreatment on SCH23390-repressed DRD1 promoter activity” value is reported as “reversed”. Besides, the “effect of haloperidol co-treatment on SKF81297-activated DRD1 promoter activity” value in assay [2] (SKF81297 36 hrs, haloperidol co-treatment 24 and 36 hrs (FIG. 4B)) is listed as “markedly attenuated”. Besides, the “effect on SCH23390/SKF81297-altered DRD1 promoter activity” value in assay [2] is listed as “reversed SCH23390/SKF21897-altered DRD1 promoter activity; also recorded: reversed either SCH23390 or SKF81297-altered human DRD1 promoter activity”.

With `CN(C)C(=O)N[C@H]1CC[C@H](CCN2CCN(c3cccc(Cl)c3Cl)CC2)CC1` [Cariprazine], the “effect on SCH23390/SKF81297-altered DRD1 promoter activity” value in assay [2] was “trans-stabilize SCH23390/SKF81297-altered DRD1 promoter activity”.

For `Oc1cc2c(c(Cl)c1O)CCNCC2c1ccccc1` (stereo not drawn) [SKF81297, SKF-81297], the “DRD1 mRNA expression, time response” value in assay [3] (SH-SY5Y cells (FIG. 1A)) is on record as “time-dependently increased DRD1 mRNA expression”. For the same compound, the “increase of DRD1 mRNA expression” value in assay [3] (10 μM, 24 hrs later, SH-SY5Y cells (FIG. 1A)) is reported as 6 fold. Besides, the “DRD1 mRNA expression 30 hrs later and thereafter” value in assay [3] (10 μM, 30 hrs later and thereafter, SH-SY5Y cells) was “decreased to basal level”. In addition, the “DRD1 mRNA and protein expression, treatment alone (summary)” value in assay [3] (10 μM, SH-SY5Y cells) is “increases DRD1 mRNA and protein expression in a time-dependent manner”. The “DRD1 mRNA expression, treatment alone” value in assay [3] (setting [4]) and in assay [3] (setting [5]) was “increased human DRD1 mRNA expression” throughout.
